The supplement of paper PMC8671470

What was measured:
Conditions in all cases: 72 h
BV-173 [1] = test system: BV-173
Method in brief: (§1)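 Seeded in RPMI 1640 at densities within the linear growth range, fifteen myeloid leukaemia cell lines were dispensed into 384-well plates with acoustically pre-printed compounds spanning five tenfold doses from 1 to 10,000 nM, in duplicate. The plates were kept for 72 h at 37 °C in 5% CO2 before luminescent ATP viability was measured and normalised to vehicle and to a positive control at 10 µM. Curves were fitted with a four-parameter log-logistic model. The IC50 was taken from those curves.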

HEL [2] = test system: HEL
Method in brief: as §1

HL-60 [3] = test system: HL-60
Method in brief: as §1

K-562 = test system: K-562
Method in brief: as §1

KCL-22 [4] = test system: KCL-22
Method in brief: as §1

KG-1 [5] = test system: KG-1
Method in brief: as §1

KU-812 [6] = test system: KU-812
Method in brief: as §1

LAMA-84 [7] = test system: LAMA-84
Method in brief: as §1

ML-2 [8] = test system: ML-2
Method in brief: as §1

MOLM-13 [9] = test system: MOLM-13
Method in brief: as §1

MV4-11 [10] = test system: MV4-11
Method in brief: as §1

Mono-Mac-6 [11] = test system: Mono-Mac-6
Method in brief: as §1

NOMO-1 [12] = test system: NOMO-1
Method in brief: as §1

SHI-1 [13] = test system: SHI-1
Method in brief: as §1

THP-1 [14] = test system: THP-1
Method in brief: as §1

BV-173 [15] = assay: cell viability (% survival relative to DMSO control, bortezomib = 0%); higher = less cytotoxic
Method in brief: (§2)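 Fifteen myeloid leukaemia cell lines were exposed to compounds at 1, 10, 100, 1000 or 10000 nM in 384-well plates for 72 h at 37 °C and 5% CO2. Viability was read by CellTiter-Glo luminescence and normalised, with vehicle as 100% and a 10 µM positive control as 0%. Values are percent survival averaged over duplicates.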

HEL [16] = assay: as above
Method in brief: as §2

HL-60 [17] = assay: as above
Method in brief: as §2

KCL-22 [18] = assay: as above
Method in brief: as §2

KG-1 [19] = assay: as above
Method in brief: as §2

KU-812 [20] = assay: as above
Method in brief: as §2

LAMA-84 [21] = assay: as above
Method in brief: as §2

ML-2 [22] = assay: as above
Method in brief: as §2

MOLM-13 [23] = assay: as above
Method in brief: as §2

MV4-11 [24] = assay: as above
Method in brief: as §2

Mono-Mac-6 [25] = assay: as above
Method in brief: as §2

NOMO-1 [26] = assay: as above
Method in brief: as §2

SHI-1 [27] = assay: as above
Method in brief: as §2

THP-1 [28] = assay: as above
Method in brief: as §2

HL-60 [29] = assay: area under dose-response curve (viability, 1 nM-10 uM) (fraction (0-1)); higher = more sensitive
Method in brief: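 In 384-well plates, the full library was rescreened in duplicate on HL-60 cells in RPMI 1640 with 10% FBS, at 1–10,000 nM in five tenfold concentrations, for 72 h at 37 °C, 5% CO2. Each run also held DMSO or 100 nM of one of three metabolic inhibitors. Viability was measured by CellTiter-Glo and normalised to DMSO wells and to wells with proteasome inhibitor, present at 10 μM. Any area under the curve comes from four-parameter log-logistic fitting with drc and PharmacoGx.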

C[C@H](NC(=O)c1sccc1OCc1ccc(Cl)cc1)c1ccccc1
Conditions | IC50 (cell viability) [µM]
BV-173 [1] | > 10
HEL [2] | > 10
HL-60 [3] | 0.751
K-562 | > 10
KCL-22 [4] | > 10
KG-1 [5] | > 10
KU-812 [6] | > 10
LAMA-84 [7] | > 10
ML-2 [8] | > 10
MOLM-13 [9] | > 10
MV4-11 [10] | > 10
Mono-Mac-6 [11] | > 10
NOMO-1 [12] | > 10
SHI-1 [13] | > 10
THP-1 [14] | > 10

Conditions | area under dose-response curve, co-treatment: AZD3965 100 nM | area under dose-response curve, co-treatment: DMSO vehicle | area under dose-response curve, co-treatment: GSK2194069 100 nM | area under dose-response curve, co-treatment: pictilisib 100 nM | cell viability, 1 nM [%] | cell viability, 10 nM [%] | cell viability, 100 nM [%] | cell viability, 1000 nM [%] | cell viability, 10000 nM [%]
BV-173 [15] | – | – | – | – | 93.5 | 99.7 | 89.2 | 90.1 | 50.4
HEL [16] | – | – | – | – | 98.3 | 101 | 97.6 | 97.5 | 91.4
HL-60 [17] | – | – | – | – | 90.6 | 84.1 | 106 | 35.7 | 56
HL-60 [29] | < 0.0301 | < 0.0301 | < 0.0301 | < 0.0301 | – | – | – | – | –
KCL-22 [18] | – | – | – | – | 111 | 106 | 97.8 | 84 | 65.6
KG-1 [19] | – | – | – | – | 94 | 103 | 92.1 | 91.9 | 61.4
KU-812 [20] | – | – | – | – | 84.6 | 96.1 | 94.8 | 95.8 | 59.8
LAMA-84 [21] | – | – | – | – | 94.2 | 100 | 94 | 98.9 | 65.4
ML-2 [22] | – | – | – | – | 104 | 108 | 98.8 | 106 | 72.4
MOLM-13 [23] | – | – | – | – | 93.5 | 95.7 | 96.8 | 109 | 102
MV4-11 [24] | – | – | – | – | 89.3 | 102 | 83 | 96.1 | 59.9
Mono-Mac-6 [25] | – | – | – | – | 88.8 | 102 | 102 | 98.3 | 88.8
NOMO-1 [26] | – | – | – | – | 96.6 | 108 | 99.3 | 102 | 101
SHI-1 [27] | – | – | – | – | 82.5 | 98.7 | 97.9 | 95.4 | 75.7
THP-1 [28] | – | – | – | – | 101 | 103 | 99 | 103 | 92.1

CN(C)C(=O)[C@H](O)[C@H](Cc1ccccc1)NC(=O)c1cc2cc(Cl)ccc2[nH]1
Conditions | IC50 (cell viability) [µM]
BV-173 [1] | > 10
HEL [2] | > 10
HL-60 [3] | > 10
K-562 | > 10
KCL-22 [4] | > 10
KG-1 [5] | > 10
KU-812 [6] | > 10
LAMA-84 [7] | > 10
ML-2 [8] | > 10
MOLM-13 [9] | > 10
MV4-11 [10] | > 10
Mono-Mac-6 [11] | > 10
NOMO-1 [12] | > 10
SHI-1 [13] | > 10
THP-1 [14] | > 10

Conditions | area under dose-response curve, co-treatment: AZD3965 100 nM | area under dose-response curve, co-treatment: DMSO vehicle | area under dose-response curve, co-treatment: GSK2194069 100 nM | area under dose-response curve, co-treatment: pictilisib 100 nM | cell viability, 1 nM [%] | cell viability, 10 nM [%] | cell viability, 100 nM [%] | cell viability, 1000 nM [%] | cell viability, 10000 nM [%]
BV-173 [15] | – | – | – | – | 88.3 | 110 | 98.4 | 105 | 73.2
HEL [16] | – | – | – | – | 98.5 | 102 | 99.1 | 112 | 88.1
HL-60 [17] | – | – | – | – | 85.4 | 100 | 108 | 174 | 89.1
HL-60 [29] | < 0.0301 | < 0.0301 | < 0.0301 | < 0.0301 | – | – | – | – | –
KCL-22 [18] | – | – | – | – | 107 | 98.3 | 108 | 105 | 91.6
KG-1 [19] | – | – | – | – | 102 | 93.9 | 95.2 | 114 | 80.3
KU-812 [20] | – | – | – | – | 98.1 | 96 | 102 | 104 | 62.6
LAMA-84 [21] | – | – | – | – | 94.6 | 97.6 | 114 | 107 | 83.3
ML-2 [22] | – | – | – | – | 110 | 100 | 106 | 120 | 85
MOLM-13 [23] | – | – | – | – | 97.6 | 98.6 | 101 | 123 | 88.1
MV4-11 [24] | – | – | – | – | 97.9 | 83.8 | 98.4 | 102 | 68.6
Mono-Mac-6 [25] | – | – | – | – | 94.8 | 97.8 | 103 | 96.5 | 83.8
NOMO-1 [26] | – | – | – | – | 101 | 102 | 106 | 106 | 95.4
SHI-1 [27] | – | – | – | – | 106 | 97.8 | 115 | 114 | 99.6
THP-1 [28] | – | – | – | – | 96.3 | 95.8 | 103 | 104 | 91.8
